Assay results: US6541463B1, “Inhibitors of type 5 and type 3 17β-hydroxysteroid dehydrogenase and methods for their use” (Endorecherche, Inc., priority 1998, dated 2003)
Like-named read-outs stand apart in the source and are kept apart here.

Tests used:
[1] = molecular target: T1, human type 3 17β-hydroxysteroid dehydrogenase (Homo sapiens, UniProt P37058); experiment: Enzymatic assay for type 3 17β-HSD; assay type: biochemical
T1 construct: expressed in transfected cells; host or cells: 293 cells, transient transfection; microsomal fraction (100 000×g pellet)
T1 sequence (P37058 1-310): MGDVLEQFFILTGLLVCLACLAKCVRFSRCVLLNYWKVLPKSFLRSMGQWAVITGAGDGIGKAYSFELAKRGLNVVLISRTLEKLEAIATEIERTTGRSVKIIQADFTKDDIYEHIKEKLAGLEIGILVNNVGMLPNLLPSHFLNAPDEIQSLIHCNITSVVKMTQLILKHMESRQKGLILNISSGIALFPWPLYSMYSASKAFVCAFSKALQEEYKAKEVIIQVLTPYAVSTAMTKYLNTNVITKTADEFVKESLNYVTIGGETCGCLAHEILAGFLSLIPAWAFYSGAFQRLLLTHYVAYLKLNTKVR
Source text: Enzymatic assay for types 1, 2, and 3 17β-HSD and types 1 and 3 3α-HSD”. Lower numbers of IC50 are desirable. Blank means that a determination was not done. The % of inhibition at the concentration of 3.10^−6M determined in preliminary screening test is reported in square braquets.
(§1) Enzyme sources. 293 cells transiently transfected with expression vectors encoding types 1, 2 and 3 17β-HSD (Luu-The et al., J. Steroid Biochem. Molec. Biol., 55: 581-587, 1995), types 1 and 2 5α-reductase (Luu-The et al., J. Invest. Dermatol., 102: 221-226, 1994) and types 1 and 3 3α-HSD (Dufort et al. Biochem. Biophys. Res. Commun. 228: 474-479, 1996), using the calcium phosphate procedure (Kingston et al., In: Current Protocols in Molecular Biology. Edited by E. M. Ausbel, R. Brent, R. E. Kingston, D. D. Moore, J. G. Seidman, J. A. Smith, K. Struhl. John Wiley & Sons, New York, pp. 9.1.1-9.1.9, 1991; Luu-The et al., J. Invest. Dermatol., 102: 221-226, 1994). For assays using cell subfractions, cells were sonicated in 50 mM sodium phosphate buffer (pH 7.4), containing 20% glycerol and 1 mM EDTA and centrifuged at 10 000×g for 30 min before centrifugation for 100 000×g for 1 h to separate the mitochondrial and microsomal fractions, respectively. The cytosol fractions (100 000×g supernatant) was used to determine type 1 activity while the microsomal fraction (pellet at 100 000×g) was used for measurement of types 2 and 3 17β-HSD activities.
(§2) Incubation. The enzymatic reaction was carried out at 37° C. in 1 ml of 50 mM sodium phosphate buffer, pH 7.4, containing 20% glycerol, 1 mM EDTA, and 2 mM cofactors (NADPH or AND^+) for 1 h in the presence of 0.1 μM ^14C-labeled substrate: estrone and 4-dione for types 1 and […] 17β-HSD, respectively, testosterone for type 2 17β-HSD as well as types 1 and 2 5α-reductases, DHT for types 1 and 3 3α-HSD activities, and the indicated concentration of inhibitor.
(§3) Extraction of metabolites, migration on TLC and quantification were as described above for the assay of type 5 17β-HSD.

[2] = molecular target: T2, human type 5 17β-hydroxysteroid dehydrogenase (Homo sapiens, UniProt P42330); experiment: Inhibition of human type 5 17β-HSD activity in transfected 293 cells; assay type: cell-based; details: Table 4′; read-out: Inhibition Type V 17β-HSD IC50
T2 construct: screen again a human placental λgt11 cDNA to get the full length cDNA clone; expressed in transfected cells; host or cells: human embryonal kidney 293 cells (pCMV / pCMV-neo vector)
T2 sequence (P42330 1-323): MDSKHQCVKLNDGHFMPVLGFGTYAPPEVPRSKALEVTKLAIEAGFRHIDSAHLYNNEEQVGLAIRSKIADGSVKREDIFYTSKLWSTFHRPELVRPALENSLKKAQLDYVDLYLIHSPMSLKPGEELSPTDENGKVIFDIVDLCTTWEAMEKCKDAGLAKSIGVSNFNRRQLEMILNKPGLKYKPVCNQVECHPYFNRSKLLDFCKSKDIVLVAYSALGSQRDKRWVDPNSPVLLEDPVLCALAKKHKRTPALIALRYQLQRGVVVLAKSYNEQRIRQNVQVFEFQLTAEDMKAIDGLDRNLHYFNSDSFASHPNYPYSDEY
Protocol: The manner in which IC50 was determined is described in “Efficacy of the Preferred Inhibitors”. Lower numbers for IC50 are desirable.
Using a oligoprimer pair (5′-GGA-AAT-CGT-GAC-AGG-GAA-TGG-ATT-CCA-AAC-AG-3′, 5′-GGA-ATT-CTT-TAT-TGT-ATT-TCT-GGC-CTA-TGG-AGT-GAG-3′) derived from human aldoketoreductase (Qin et al., J. Steroid Biochem. Molec. Biol. 46: 673-679, 1993) and polymerase chain reaction (PCR), we have amplified from a human placental λgt11 cDNA library (Clontech Laboratories Inc., Palo Alto, Calif.) a cDNA fragment that was used as probe to screen again a human placental λgt11 cDNA to get the full length cDNA clone. The amplified cDNA fragment was purified on agarose gel and labeled with [α^32P]dCTP (Amersham Corp.) using the random primer labeling kit from Pharmacia Inc. PCR amplification reaction medium contained 50 mM KCl, 10 mM Tris-HCl, pH 8.3, 0.1% gelatin, 1 mM MgCl2, 250 μM dNTP, 0.25 μM oligonucleotide primers, and 200 ng of DNA prepared from human placental λgt11 cDNA library. The aqueous phase was overlaid with 75 μL of mineral oil to avoid evaporation. The mixture was heated at 98° C. for 5 min, following the temperature reduction to 72° C., 1 unit of Taq DNA polymerase was added. Using a DNA Thermal Cycler (Perkin-Elmer Corp.), 30 cycles of amplification were carried out using a step program (94° C., 1 min; 60° C., 1 min; and 72° C., 1 min)/cycle.
Approximately 5×10^5 recombinant phage plaques were screened with 1.5×10^6 cpm/ml of the probe. Prehybridization was performed for 4 h at 42° C. in 50% formamide, 5× Denhardt's solution (1× Denhardt's being 0.02% polyvinyl pyrrolidone, 0.02 Ficoll, 0.02 bovine serum albumin), 5×SSPE (1×SSPE being 0.18M NaCl, 10 mM NaH2PO4, pH 7.4, 1 mM EDTA), 0.1% SDS, and 100 μg/ml yeast tRNA. The probe was denatured by heating at 100° C. for 5 min, before being added to the hybridization solution at 42° C. overnight. Filters were then washed twice at room temperature in 2×SSC (1×SSC being […], pH 7.0), 0.1% SDS, and twice in 0.1×SSC, 0.1% SDS at 60° C. Positive recombinant plaques were purified by replating twice and grown in liquid culture. Phage DNA were isolated by centrifugation for 90 min at 105,000×g, and DNA was then isolated by phenol extraction and precipitation with isopropanol (Karen et al. 1987; In: Current Protocols in Molecular Biology (F. M. Ausubel, R. Brent, E. Kingston, D. D. Moore, T. G. Seidman, T. A. Smith and K. Struhl, eds), Wiley & Sons, New York, pp. 1.13.1-1.13.6).
The phage DNA were digested with EcoRI restriction enzymes and the resulting cDNA fragments were inserted into the EcoRI site downstream to the cytomegalovirus (CMV) promoter of the pCMV vector (kindly provided by Dr. Matthew, Cold Spring Harbor, N.Y., USA). Recombinant pCMV plasmids were amplified in Escherichia Coli DH5α competent cells, and were isolated by alkaline lysis procedure (Maniatis et al., In: Molecular cloning: a laboratory manual, Cold Spring Harbor Laboratory., 1982). Sequencing of double-stranded plasmid DNA was performed according to the dideoxy chain termination method (Sanger et al., PNAS 74: 5453-5467, 1977) using a T7 DNA polymerase sequencing kit (Pharmacia LKB Biotechnology). To avoid errors, all sequences were determined by sequencing both strands of the DNA. Oligonucleotide primers were synthesized in our laboratory with a 394 DNA/RNA synthesizer (Applied Biosystem).
The pCMV vector contain 576 nucleotides of the pCMV promoter (followed by 432 bp of small t intron (fragment 4713-4570) and poly adenylation signal (2825-2536)of SV40, followed by 1989 bp of the Pvu II(628)-AatII (2617) fragment from pUC 19 vector (New England Biolabs) that contains an E. Coli origin of replication and an ampicillin resistance gene for propagation in E. Coli. […]

[3] = molecular target: T3, human type 2 17β-hydroxysteroid dehydrogenase (Homo sapiens, UniProt P37059); experiment: Enzymatic assay for type 2 17β-HSD; assay type: biochemical; details: Table 4′; bracketed values, 3 · 10^−8M; read-out: Inhibition Type 2 17β-HSD Activity [% Inh. at 3 · 10^−8M]
T3 construct: expressed in transfected cells; host or cells: 293 cells, transient transfection; microsomal fraction (100 000×g pellet)
T3 sequence (P37059 1-387): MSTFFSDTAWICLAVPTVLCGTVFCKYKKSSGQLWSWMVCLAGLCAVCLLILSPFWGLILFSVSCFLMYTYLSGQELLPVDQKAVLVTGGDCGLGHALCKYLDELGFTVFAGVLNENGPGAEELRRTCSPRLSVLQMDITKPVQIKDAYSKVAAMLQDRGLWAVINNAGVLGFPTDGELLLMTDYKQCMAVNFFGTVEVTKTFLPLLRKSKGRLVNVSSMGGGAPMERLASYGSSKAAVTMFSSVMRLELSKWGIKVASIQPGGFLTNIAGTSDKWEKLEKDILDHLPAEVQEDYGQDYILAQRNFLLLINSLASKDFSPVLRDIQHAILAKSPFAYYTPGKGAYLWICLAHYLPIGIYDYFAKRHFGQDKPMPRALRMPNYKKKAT
Protocol: The manner in which IC50 was determined is described in “Efficacy of Preferred Inhibitors: VI. Enzymatic assay for types 1, 2, and 3 17β-HSD and types 1 and 3 3α-HSD”. […] numbers of IC50 are desirable. Blank means that a determination was not done. […]
as §1, §2, §3

SMILES | % of Inhibition of the Type 3 17β-HSD Activity ([1]; 3.10^−6 M inhibitor) [%] | % of Inhibition of the Type 3 17β-HSD Activity ([1]; 3.10^−7 M inhibitor) [%] | other results
C[C@]12CC[C@](O)(Cc3ccccc3)C[C@@H]1CC[C@@H]1[C@@H]2CC[C@]2(C)C(=O)CC[C@@H]12 [CS-213, 3β-benzyl-3α-Hydroxy-5α-androstane-17-one] | – | – | IC50 [1]: 31 ± 4 nM
COCCOc1ccc2c(c1)CC[C@@H]1[C@@H]2CC[C@]2(C)C(=O)CC[C@@H]12 [EM-1073, 3-Methyloxyethyloxy-1,3,5(10)-estratrien-17-one] | 87 | 51 | –
CSCCSc1ccc2c(c1)CC[C@@H]1[C@@H]2CC[C@]2(C)C(=O)CC[C@@H]12 [EM-1065, 3-Methylthioethylthio-Estra-1,3,5(10)-trien-17-one] | 94 | 63 | melting point: 74 °C
C[C@]12CC[C@](O)(CCc3ccccc3)C[C@@H]1CC[C@@H]1[C@@H]2CC[C@]2(C)C(=O)CC[C@@H]12 [EM-1324-CS, 3α-hydroxy-3β-phenylethyl-5α-androstane-17-one] | – | – | IC50 ([1]; Table 7, read-out: Inhibition of the Type 3 17β-HSD Activity IC50): 31 ± 4 nM
COCSc1ccc2c(c1)CC[C@@H]1[C@@H]2CC[C@]2(C)C(=O)CC[C@@H]12 [EM-1064, 3-Methoxymethylthio-Estra-1,3,5(10)-trien-17-one] | 92 | 62 | melting point: 55 °C
CSCOc1ccc2c(c1)CC[C@@H]1[C@@H]2CC[C@]2(C)C(=O)CC[C@@H]12 [EM-1066, 3-Methylthiomethyloxy-1,3,5(10)-estratrien-17-one] | 93 | 63 | –
CCCCOc1ccc2c(c1)CC[C@@H]1[C@@H]2CC[C@]2(C)C(=O)CC[C@@H]12 [EM-1074, 3-Butyloxy-1,3,5(10)-estratrien-17-one] | 92 | 62 | –
COCOc1ccc2c(c1)CC[C@@H]1[C@@H]2CC[C@]2(C)C(=O)CC[C@@H]12 [EM-1070, 3-Methyloxymethyloxy-1,3,5(10)-estratrien-17-one] | 90 | 57 | –
C[C@]12CC[C@@H](O)C[C@@H]1CC[C@@H]1[C@@H]2CC[C@]2(C)C(=O)CC[C@@H]12 [androsterone, reference compound] | – | – | IC50 [1]: 200 nM
CCOCCOc1ccc2c(c1)CC[C@@H]1[C@@H]2CC[C@]2(C)C(=O)CC[C@@H]12 [EM-1071, 3-Ethyloxyethyloxy-1,3,5(10)-estratrien-17-one] | 91 | 73 | –
CC1(C)CCC2(CCC3C4CC(=O)c5cc(O)ccc5C4CCC32C)OC1=O (stereo not drawn) [EM-01608-D] | – | – | IC50 [2]: 3.6 ± 0.5 nM; inhibition [3]: 58%
